Test results: paper PMC8952214 (Pharmaceuticals, 2022)
Read-outs that look alike come from different tables or passages of the source.

What was measured:
[1] = system: A/RomaISS/02/08 H1N1 (Brisbane-like) oseltamivir-sensitive virus; format: biochemical, Influenza A virus
[2] = system: A/Parma/05/06 H3N2 (Wisconsin-like); format: biochemical, Influenza A virus
Cytotoxicity assay = format: cell-based, canine; conditions: dog, MDCK cells (confluent); read-out: CC50 cytotoxic concentration 50%
Method: Madin-Darby canine kidney (MDCK, ATCC, CRL-2936) cells were grown at 37 °C in minimal essential medium (MEM, Invitrogen, Paisley, UK) containing 1.2 g/L NaHCO3, and supplemented with 10% inactivated fetal calf serum (FCS, Invitrogen, Paisley, UK), 2 mM glutamine, nonessential amino acids, penicillin (100 IU/mL), and streptomycin (100 μg/mL).
This procedure was performed as reported elsewhere. Briefly, two-fold serial dilutions of each compound and DMSO or H2O in culture medium were incubated at 37 °C with confluent MDCK cells grown in 96-well tissue culture microplates (Nalge Nunc Europe Ltd., Neerijse, Belgium). After 24 and 48 h, the following parameters were evaluated: cell morphology was examined by light microscopy, cell viability was determined by neutral red staining as already described by us, and cell proliferation was evaluated quantitatively by microscopic counts after dispersion into individual cells with trypsin.

[3] = system: A/RomaISS/02/08 H1N1 (Brisbane-like) oseltamivir-sensitive virus; assay: microbe, parasite or virus in culture; format: cell-based, Influenza A virus; conditions: for EC50: Influenza A virus, H1N1, MDCK, 48 h, read-out: EC50 A/Roma H1N1
[4] = system: A/Parma/05/06 H3N2 (Wisconsin-like); assay: microbe, parasite or virus in culture; format: cell-based, Influenza A virus; conditions: for EC50: Influenza A virus, H3N2, MDCK, 48 h, read-out: EC50 A/Parma H3N2
[5] = system: A/RomaISS/02/08 H1N1 (Brisbane-like) oseltamivir-sensitive virus; conditions: Table 1; turkey erythrocytes; cited from earlier work
[6] = system: A/RomaISS/02/08 H1N1 (Brisbane-like) oseltamivir-sensitive virus; conditions: MDCK cells, c.p.e. by neutral red, 48 h; read-out: EC50 A/Roma H1N1; cited from earlier work
A/H1N1 = conditions: cited from earlier work

SMILES | HI Titer A/Roma H1N1 [1] [pM] | HI Titer A/Parma H3N2 [2] | CC50 (Cytotoxicity assay) [nM] | SI (selectivity index) = CC50/EC50, A/Parma H3N2 [4] | HI Titer A/Roma H1N1 [5] [µM] | further results
Cc1ccc(S(=O)(=O)Nc2ccc(-n3ccnc3)c(Cl)c2)cc1 [Compound 28] | 0.093 |  |  |  |  | 
Cc1ccc(NC(=O)COC(=O)c2ccccn2)cc1F [Compound 13] | 24 | 6 pM | 31200 | 0.62 × 10^2 |  | EC50 [3]: 700 nM
Cc1ccc2nc(CNc3ccc(C)c(Cl)c3)cc(=O)n2c1 [Compound 5] |  |  |  |  | 0.48 | 
O=C(COC(=O)c1ccccn1)Nc1ccc2c(c1)CCC2 [Compound 24] | 0.024 |  |  |  |  | 
Cc1ccc(S(=O)(=O)NC(C)c2ccc(-n3ccnc3)cc2)cc1C (stereo not drawn) [Compound 1] |  | 480000 pM | 300000 | 3 × 10^3 | 0.24 | EC50 [4]: 98 nM; EC50 [6]: 500 nM; activity in hemolysis assays toward A/H1N1 (A/H1N1): active
COc1ccc(S(=O)(=O)NCc2ccc(-n3ccnc3)cc2)cc1F [Compound 25] |  | 50,000 pM | 31200 | 0.39 × 10^2 |  | SI (selectivity index) = CC50/EC50, A/Roma H1N1 [3]: 0.34 × 10^2; EC50 [3]: 900 nM
Fc1ccc(CNc2ncnc3[nH]cnc23)cc1 [Compound 2] |  |  |  |  | 0.48 | 
Cc1nc(-c2cccc(NC(=O)COC(=O)c3ccc4ccccc4n3)c2)cs1 [Compound 26] | 0.093 |  |  |  |  | 
O=C1CCCN1c1ccc(CNS(=O)(=O)c2ccc(F)cc2)cc1 [Compound 23] | 12 |  |  |  |  | 
COc1ccc(C(=O)Nc2cccc(S(=O)(=O)NCc3ccco3)c2)cc1 [Compound 3] |  |  |  |  | 0.48 | 
CC(NS(=O)(=O)c1ccc2c(c1)CCC(=O)N2)c1ccc(-n2ccnc2)cc1 (stereo not drawn) [Compound 27] |  | 25,000 pM |  |  |  | 
O=C(CC1(O)C(=O)Nc2ccccc21)c1ccccn1 (stereo not drawn) [Compound 6] |  | 480 pM | 31200 | 1.04 × 10^2 |  | SI (selectivity index) = CC50/EC50, A/Roma H1N1 [3]: 1.56 × 10^2; EC50 [3]: 200 nM; EC50 [4]: 300 nM
Cc1ccc(F)cc1NC(=O)COC(=O)c1ccc2ccccc2n1 [Compound 4] |  | 480000 pM | 250000 | 2 × 10^3 | 0.48 | EC50 [4]: 125 nM; EC50 [6]: 62 nM; activity in hemolysis assays toward A/H1N1 (A/H1N1): active
N#Cc1ccc(NC(=O)COC(=O)c2ccccn2)cc1 [Compound 7] | 0.047 | 12,500 pM | 31200 | 0.44 × 10^2 |  | SI (selectivity index) = CC50/EC50, A/Roma H1N1 [3]: 0.39 × 10^2; EC50 [3]: 800 nM; EC50 [4]: 700 nM
